Test results taken from the supplement of paper PMC5908809.

Key:
[1] = test system: normal NK cells expanded with K562-aAPC; assay: drug sensitivity score (DSS) (DSS units); higher = more sensitive; extreme values may be limits of the assay; conditions: 72 h; IL-2 2.5 ng/mL
Protocol: (§1)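 Drug sensitivity and resistance testing on K562-aAPC-expanded normal NK cells: 5 concentrations (10-fold steps over a 10,000-fold range), 72 h at 37 °C, viability by CellTiter-Glo normalised to DMSO and benzethonium chloride controls; DSS from the fitted curve.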

NKL (IL-2 2.5 ng/mL) [2] = assay: percent inhibition of viability; higher = more inhibition; conditions: 72 h
NK-92 (IL-2 2.5 ng/mL) [3] = assay: as above; conditions: 72 h
DERL-7 (IL-2 2.5 ng/mL) [4] = assay: as above; conditions: 72 h
[5] = test system: normal primary NK cells, pool 1 (3 donors) (IL-2 2.5 ng/mL); assay: as above; conditions: 72 h
YT (IL-2 2.5 ng/mL) [6] = assay: as above; conditions: 72 h
SNK-6 (IL-2 2.5 ng/mL) [7] = assay: as above; conditions: 72 h
KAI3 (IL-2 2.5 ng/mL) [8] = assay: as above; conditions: 72 h
[9] = test system: normal primary NK cells, pool 1 (3 donors), resting (IL-2 0 ng/mL); assay: as above; conditions: 72 h
[10] = test system: normal primary NK cells, pool 3 (3 donors) (IL-2 2.5 ng/mL); assay: as above; conditions: 72 h
IMC-1 (IL-2 20 ng/mL) [11] = assay: as above; conditions: 72 h
NK-YS (IL-2 2.5 ng/mL) [12] = assay: as above; conditions: 72 h
KHYG-1 (IL-2 2.5 ng/mL) [13] = assay: as above; conditions: 72 h
[14] = test system: normal primary NK cells, pool 2 (3 donors) (IL-2 2.5 ng/mL); assay: as above; conditions: 72 h
[15] = test system: normal NK cells expanded with K562-aAPC; assay: as above; conditions: 72 h, IL-2 2.5 ng/mL
Protocol: as §1

NKL (IL-2 2.5 ng/mL) [16] = assay: drug sensitivity score (DSS) (DSS units); higher = more sensitive; extreme values may be limits of the assay; conditions: 72 h
NK-92 (IL-2 2.5 ng/mL) [17] = assay: as above; conditions: 72 h
DERL-7 (IL-2 2.5 ng/mL) [18] = assay: as above; conditions: 72 h
[19] = test system: normal primary NK cells, pool 1 (3 donors) (IL-2 2.5 ng/mL); assay: as above; conditions: 72 h
YT (IL-2 2.5 ng/mL) [20] = assay: as above; conditions: 72 h
SNK-6 (IL-2 2.5 ng/mL) [21] = assay: as above; conditions: 72 h
KAI3 (IL-2 2.5 ng/mL) [22] = assay: as above; conditions: 72 h
[23] = test system: normal primary NK cells, pool 1 (3 donors), resting (IL-2 0 ng/mL); assay: as above; conditions: 72 h
[24] = test system: normal primary NK cells, pool 3 (3 donors) (IL-2 2.5 ng/mL); assay: as above; conditions: 72 h
IMC-1 (IL-2 20 ng/mL) [25] = assay: as above; conditions: 72 h
NK-YS (IL-2 2.5 ng/mL) [26] = assay: as above; conditions: 72 h
KHYG-1 (IL-2 2.5 ng/mL) [27] = assay: as above; conditions: 72 h
[28] = test system: normal primary NK cells, pool 2 (3 donors) (IL-2 2.5 ng/mL); assay: as above; conditions: 72 h

CC[C@@H]1C(=O)N(C)c2cnc(Nc3ccc(C(=O)NC4CCN(C)CC4)cc3OC)nc2N1C1CCCC1 [BI 2536] (max concentration tested 1000 nM)
Conditions | drug sensitivity score
DERL-7 (IL-2 2.5 ng/mL) [18] | 24.6
IMC-1 (IL-2 20 ng/mL) [25] | 21.4
KAI3 (IL-2 2.5 ng/mL) [22] | 14.1
KHYG-1 (IL-2 2.5 ng/mL) [27] | 19.9
NK-92 (IL-2 2.5 ng/mL) [17] | 23.4
NK-YS (IL-2 2.5 ng/mL) [26] | 15.2
NKL (IL-2 2.5 ng/mL) [16] | 16.6
SNK-6 (IL-2 2.5 ng/mL) [21] | 17.8
YT (IL-2 2.5 ng/mL) [20] | 15
[1] | 13.5
[19] | 1.36
[23] | 0.98
[24] | 1.86
[28] | 4.32

percent inhibition of viability [%]
Conditions | 0.1 nM | 1 nM | 10 nM | 100 nM | 1000 nM
DERL-7 (IL-2 2.5 ng/mL) [4] | -1.78 | 1.66 | 56.8 | 99.1 | 96.4
IMC-1 (IL-2 20 ng/mL) [11] | -3.03 | -6.74 | 26.6 | 96.7 | 95.2
KAI3 (IL-2 2.5 ng/mL) [8] | -2.84 | 1.84 | 32 | 55.7 | 52.9
KHYG-1 (IL-2 2.5 ng/mL) [13] | -0.33 | -0.33 | 11.5 | 101 | 102
NK-92 (IL-2 2.5 ng/mL) [3] | -10.3 | -5.85 | 41.7 | 99.6 | 91.2
NK-YS (IL-2 2.5 ng/mL) [12] | 1.37 | 3.08 | 22.7 | 66.2 | 58.4
NKL (IL-2 2.5 ng/mL) [2] | -16.1 | -17.7 | 34.5 | 66.8 | 64.5
SNK-6 (IL-2 2.5 ng/mL) [7] | 3.37 | 2.93 | 50.7 | 61.7 | 48.1
YT (IL-2 2.5 ng/mL) [6] | -0.96 | -1.95 | 5.23 | 77.8 | 74.1
[5] | -8.51 | 7.02 | -5.03 | -6.42 | 36.1
[9] | 4.96 | 13.2 | -4.79 | -10.2 | 31.4
[10] | -15.6 | -13.3 | -7.87 | -2.57 | 41.2
[14] | -11.8 | -7.85 | -1.58 | 7 | 58.2
[15] | 1.03 | 0.31 | 20.1 | 60.1 | 67.4

CNC(=O)c1cccc(-c2ccc3c(N4CCOC[C@@H]4C)nc(N4CCOC[C@@H]4C)nc3n2)c1 [AZD2014] (max concentration tested 10000 nM)
Conditions | drug sensitivity score
DERL-7 (IL-2 2.5 ng/mL) [18] | 18.6
IMC-1 (IL-2 20 ng/mL) [25] | 0
KAI3 (IL-2 2.5 ng/mL) [22] | 21
KHYG-1 (IL-2 2.5 ng/mL) [27] | 11.2
NK-92 (IL-2 2.5 ng/mL) [17] | 14.5
NK-YS (IL-2 2.5 ng/mL) [26] | 14.4
NKL (IL-2 2.5 ng/mL) [16] | 20.4
SNK-6 (IL-2 2.5 ng/mL) [21] | 12.5
YT (IL-2 2.5 ng/mL) [20] | 13.5
[1] | 10.8
[19] | 8.12
[23] | 9.03
[24] | 5.08
[28] | 5.3

percent inhibition of viability [%]
Conditions | 1 nM | 10 nM | 100 nM | 1000 nM | 10000 nM
DERL-7 (IL-2 2.5 ng/mL) [4] | -2.59 | 6.55 | 37.5 | 74.8 | 87.2
IMC-1 (IL-2 20 ng/mL) [11] | -8.07 | -10.1 | -19.9 | -44.5 | 8.41
KAI3 (IL-2 2.5 ng/mL) [8] | 19.5 | 24.3 | 46.2 | 65.3 | 73.2
KHYG-1 (IL-2 2.5 ng/mL) [13] | 8.26 | 7.2 | 12.9 | 48.3 | 87.9
NK-92 (IL-2 2.5 ng/mL) [3] | 4.44 | -1.39 | 29.1 | 57.6 | 86.6
NK-YS (IL-2 2.5 ng/mL) [12] | 7.61 | 7.66 | 23 | 61.5 | 81.5
NKL (IL-2 2.5 ng/mL) [2] | 8.6 | 17.6 | 50.9 | 66.7 | 73
SNK-6 (IL-2 2.5 ng/mL) [7] | 5.51 | 16.6 | 22.9 | 45 | 60.5
YT (IL-2 2.5 ng/mL) [6] | 10.9 | 6.65 | 18.3 | 60.6 | 78.2
[5] | 5.65 | 6.16 | 19.9 | 34.6 | 35.5
[9] | -7.02 | 8.25 | 24.4 | 20.1 | 45.9
[10] | 0.74 | 5.96 | 9.04 | 27.7 | 27.3
[14] | -6.11 | 7.01 | 7.49 | 28.2 | 29.1
[15] | 1.08 | 8.53 | 26.5 | 39.1 | 53.6

Nc1ccn([C@@H]2O[C@H](CO)[C@@H](O)[C@@H]2O)c(=O)n1 [Cytarabine] (max concentration tested 10000 nM)
Conditions | drug sensitivity score
DERL-7 (IL-2 2.5 ng/mL) [18] | 31.5
IMC-1 (IL-2 20 ng/mL) [25] | 25
KAI3 (IL-2 2.5 ng/mL) [22] | 26.2
KHYG-1 (IL-2 2.5 ng/mL) [27] | 30.8
NK-92 (IL-2 2.5 ng/mL) [17] | 23.6
NK-YS (IL-2 2.5 ng/mL) [26] | 16
NKL (IL-2 2.5 ng/mL) [16] | 24.4
SNK-6 (IL-2 2.5 ng/mL) [21] | 19.1
YT (IL-2 2.5 ng/mL) [20] | 3.34
[1] | 19
[19] | 7.89
[23] | 8.4
[24] | 5.19
[28] | 6.63

percent inhibition of viability [%]
Conditions | 1 nM | 10 nM | 100 nM | 1000 nM | 10000 nM
DERL-7 (IL-2 2.5 ng/mL) [4] | -3.03 | 23.2 | 88.8 | 98.1 | 99.7
IMC-1 (IL-2 20 ng/mL) [11] | -2.71 | -1.64 | 59.5 | 98.2 | 99.6
KAI3 (IL-2 2.5 ng/mL) [8] | -13.4 | 12.5 | 67.4 | 95.8 | 95.5
KHYG-1 (IL-2 2.5 ng/mL) [13] | -3.64 | 17.1 | 88.3 | 105 | 102
NK-92 (IL-2 2.5 ng/mL) [3] | 0.96 | 0.98 | 50.8 | 95.5 | 97.8
NK-YS (IL-2 2.5 ng/mL) [12] | -6.32 | -1.48 | 14 | 77.5 | 92.9
NKL (IL-2 2.5 ng/mL) [2] | -6.71 | 6.58 | 60.2 | 94.3 | 93.6
SNK-6 (IL-2 2.5 ng/mL) [7] | 18.7 | 4.98 | 31.7 | 83.1 | 97.5
YT (IL-2 2.5 ng/mL) [6] | -3.82 | 0.15 | -0.65 | 19.1 | 28.4
[5] | -4.48 | -4.56 | -4.83 | 23 | 80.4
[9] | -11.7 | -15.1 | -18.8 | 29.4 | 78.7
[10] | -11.3 | -7.93 | -9.4 | 7.11 | 73.2
[14] | -14.2 | -13.4 | -1.98 | 13.2 | 79.9
[15] | 0.23 | -1.23 | 28.7 | 84.4 | 98.9
